# Measurements published in US20250215052A1, “INHIBITORS OF PICK1 AND USES THEREOF” (University of Copenhagen, priority 2018, published 2025).
# How the values were obtained:
# Plasma stability = type: in vitro ADME; conditions: human, 37° C., 24 h incubation
# Description: (§1) 360 μL undiluted human male serum (Sigma; H4522) or PBS was kept at 37° C. for 15 min, followed by addition of 40 μL (500 uM) of relevant peptide and subsequent incubation at 37° C. For stability analysis, 45 μL samples was taken out at t=0 min and t=24 hrs, and samples quenched by addition of 50 μL 6M urea followed by incubation at 37° C. for additional 30 min. 50 μL 20% TCA (W7V) in acetone was added to each sample before incubation for at least 16 hrs at 5° C. Samples were centrifuged at 14.000×g for 30 min and supernatants collected and filtered using a 0.22 μm syringe filter. Samples were analyzed on an Acquity UPLC H-Class instrument using a C18 column with a 15 min 10-80% […] gradient. Remaining analyte (%) was calculated as the area under curve (AUC) of the main peak at indicated time points relative to the sample at t=0 min.
# PBS stability = type: physicochemical; conditions: 37° C., 24 hrs
# Description: as §1
# SNI mice [1] = experiment: SNI neuropathic pain model, subcutaneous administration, Von Frey; type: in vivo; conditions: 10 μmol/kg s.c.
# Description: Mice: 8 weeks old C57BI6J mice (from Charles River)
# 10 μmol/kg peptide solution was subcutaneously administered (100 μL/10 g).
# Spared Nerved Injury surgery: The surgery was performed on anaesthetized mice. A complete ligature and transection of the common peroneal and tibial distal branches of the sciatic nerve was performed, leaving the sural branch intact. The operated side is referred to as the ipsilateral side and the non-operated side is referred to as the contralateral side. 7 days post-surgery, a decrease of threshold response to Von Frey filaments of ipsilateral hind paw was observed.
# Mechanical threshold response: The mechanical threshold response of the operated mice was measured with calibrated Von Frey filaments using up/down method, and the 50% threshold (g) was calculated (see equation 1). Mechanical pain responses are defined as paw withdrawal, flinching and/or paw licking following filament prick. The experimenter was blinded to mice treatment. One baseline measure was performed before surgery, one measure 7 days after surgery (D+7) before drug's administration. One measure was performed 1 h, 2 h, 3 h and 4 h post drug administration. n=8 mice/timepoint for peptide treatment.
# Statistical analysis: Statistical analysis was performed using Graphpad Prism 7.0. Pain threshold, measured as paw withdrawal threshold, was compared between time “before drug effect” and time points after drug administration (+1, +2, +3, +4 hrs), or against vehicle control (all time points). Two-way RM ANOVA followed by Dunnet's multiple comparison tests. Significance level set to p<0.05.
# [2] = FPLC size exclusion chromatography of CPP variants in PBS; type: physicochemical; conditions: Superdex 200 Increase 10/300, relative to P4-(C5)2
# Description: All samples were run in a 200 μL volume on a Superdex 200 Increase 10/300 column on an AKTA purifier FPLC system. The absorbance at 280 nm as a function of elution volume was normalized to the maximal absorbance of each peptide and plotted using GraphPadPrism 7.0.
# PICK1 = molecular target: T1, PICK1 (Rattus norvegicus, UniProt Q9EP80); experiment: biochemical; type: binding; conditions: for Fold affinity change: compared to TAT-P4-(C5)2
# T1 construct: made in house; host or cells: E. coli BL21-DE3-pLysS
# Description: The data was plotted in GraphPad Prism 7.0 and fitted to a ‘One site-Fit’ Ki curve and the apparent affinities (Ki) for the unlabelled peptides were determined using correction for depletion.
# SNI mice [3] = experiment: Spared nerve injury (SNI) model, Von Frey test, intrathecal or i.p. administration; type: in vivo
# Description: Spared nerve injury model (SNI) was performed according to methods described in Richner et al., 2011. Briefly, under isoflurane (2%) anaesthesia, the skin on the left lateral surface of the thigh was incised and the biceps femoris muscle was divided and spread lengthwise to expose the three branches of the sciatic nerve. After exposing the three branches (common peroneal, tibial and sural) in anesthetized mice, the common peroneal and tibial branches were carefully segregated from surrounding tissues, tightly ligated and axotomized ˜2 mm of the distal nerve stump, while the sural branch was left intact.
# Drugs were administered either intrathecally to anesthetized mice or intraperitoneally (i.p.).
# The development and level of mechanical threshold was determined in the affected hind paws 2 days after the SNI procedure by using Von Frey filaments ranging from 0.02 to 1.4 g. In the current experiments filaments in ascending order were applied to the lateral part of the hind paws. Each Von Frey hair was applied five times over a total period of 30 seconds and the mouse's reaction was assessed after each application; the threshold for a positive test was set at 3 trials, which evoked responses out of a maximum of 5 trials. […] Forces of the instrument are measured with units “g” and represent the gram-forces. […]
# PICK1 PDZ domain = molecular target: T2, PICK1 PDZ domain (Rattus norvegicus, UniProt Q9EP80); experiment: Fluorescence polarization competition binding to PICK1 (Example 1); conditions: PEGx dimerization of C5
# T2 construct: made in house; host or cells: E. coli BL21-DE3-pLysS
# T2 sequence (Q9EP80 whole entry, the tested form may be a part): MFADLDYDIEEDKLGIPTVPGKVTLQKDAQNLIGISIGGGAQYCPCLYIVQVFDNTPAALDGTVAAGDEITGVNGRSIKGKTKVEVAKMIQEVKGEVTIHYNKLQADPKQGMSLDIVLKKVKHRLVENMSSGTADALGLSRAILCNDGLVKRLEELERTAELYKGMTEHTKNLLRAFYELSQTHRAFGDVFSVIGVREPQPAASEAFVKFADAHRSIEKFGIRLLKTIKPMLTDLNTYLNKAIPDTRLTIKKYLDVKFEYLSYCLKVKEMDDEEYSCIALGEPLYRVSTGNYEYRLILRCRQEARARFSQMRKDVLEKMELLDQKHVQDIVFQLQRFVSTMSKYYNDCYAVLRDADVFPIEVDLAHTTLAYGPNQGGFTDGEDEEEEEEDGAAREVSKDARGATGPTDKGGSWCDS
# Description: Protein expression was induced with 10 mM Isopropyl β-D-1-thiogalactopyranoside (IPTG) and grown overnight at 20° C. […] Resuspended pellet was frozen at −80° C. to induce cell lysis. The bacterial suspension was thawed and cleared by centrifugation. The supernatant was collected and incubated with Glutathione-Sepharose 4B beads for 2 hrs at 4° C. under gentle rotation. […] Washed beads were transferred to a PD10 gravity column. Bead solution was incubated with thrombin protease overnight at 4° C. under gentle rotation.
# Fluorescence polarization was carried out in saturation mode and competition mode.
# T1 sequence (Q9EP80 whole entry): as the sequence (Q9EP80 whole entry, the tested form may be a part) above
structure (smiles),measurement,setting,value
CC(C)C[C@H](NC(=O)[C@H](Cc1c[nH]c2ccccc12)NC(=O)[C@H](Cc1cnc[nH]1)NC(=O)[C@H](CCCNC(=N)N)NC(=O)[C@H](CCCNC(=N)N)NC(=O)[C@H](CCCNC(=N)N)NC(=O)[C@H](CCC(N)=O)NC(=O)[C@H](CCCNC(=N)N)NC(=O)[C@H](CCCNC(=N)N)NC(=O)[C@H](CCCCN)NC(=O)[C@H](CCCCN)NC(=O)[C@H](CCCNC(=N)N)NC(=O)CNC(=O)[C@@H](N)Cc1ccc(O)cc1)C(=O)N[C@@H](CCCCN)C(=O)N[C@H](C(=O)O)C(C)C [TAT-C5],plasma stability,Plasma stability,improved
same,stability in PBS,PBS stability,good stability in PBS
CC[C@H](C)[C@H](NC(=O)[C@H](CCCCN)NC(=O)CNC(=O)[C@H](CC(C)C)NC(=O)[C@H](CC(C)C)NC(=O)[C@H](Cc1ccc(O)cc1)NC(=O)CNC(=O)[C@H](C)NC(=O)[C@H](CO)NC(=O)[C@H](CC(N)=O)NC(=O)[C@H](CC(C)C)NC(=O)[C@@H](NC(=O)[C@H](Cc1c[nH]c2ccccc12)NC(=O)CN)[C@@H](C)O)C(=O)N[C@@H](CC(N)=O)C(=O)N[C@@H](CC(C)C)C(=O)N[C@@H](CCCCN)C(=O)N[C@@H](C)C(=O)N[C@@H](CC(C)C)C(=O)N[C@@H](C)C(=O)N[C@@H](C)C(=O)N[C@@H](CC(C)C)C(=O)N[C@@H](C)C(=O)N[C@@H](CCCCN)C(=O)N[C@@H](CCCCN)C(=O)N[C@H](C(=O)N[C@@H](CC(C)C)C(=O)N(CCOCCOCCC(=O)N[C@@H](Cc1c[nH]cn1)C(=O)N[C@@H](Cc1c[nH]c2ccccc12)C(=O)N[C@@H](CC(C)C)C(=O)N[C@@H](CCCCN)C(=O)N[C@H](C(=O)O)C(C)C)CCOCCOCCC(=O)N[C@@H](Cc1c[nH]cn1)C(=O)N[C@@H](Cc1c[nH]c2ccccc12)C(=O)N[C@@H](CC(C)C)C(=O)N[C@@H](CCCCN)C(=O)N[C@H](C(=O)O)C(C)C)[C@@H](C)CC [TP10-P4-(C5)2],ipsilateral paw mechanical threshold compared to before drug administration,SNI mice [1]; 2 h,significant increase
same,ipsilateral paw mechanical threshold compared to vehicle,SNI mice [1]; 2 h,significant increase
same,in-solution oligomeric behavior from elution volume,[2],smaller oligomers than P4-(C5)2 or direct interaction with the column material
same,Fold affinity change,PICK1,0.5 fold
CC[C@H](C)[C@H](NC(=O)[C@H](CCCCN)NC(=O)[C@@H](NC(=O)[C@H](CCC(N)=O)NC(=O)[C@@H](N)CCCNC(=N)N)[C@@H](C)CC)C(=O)N[C@@H](Cc1c[nH]c2ccccc12)C(=O)N[C@@H](Cc1ccccc1)C(=O)N[C@@H](CCC(N)=O)C(=O)N[C@@H](CC(N)=O)C(=O)N[C@@H](CCCNC(=N)N)C(=O)N[C@@H](CCCNC(=N)N)C(=O)N[C@@H](CCSC)C(=O)N[C@@H](CCCCN)C(=O)N[C@@H](Cc1c[nH]c2ccccc12)C(=O)N[C@@H](CCCCN)C(=O)N[C@@H](CCCCN)C(=O)N(CCOCCOCCC(=O)N[C@@H](Cc1c[nH]cn1)C(=O)N[C@@H](Cc1c[nH]c2ccccc12)C(=O)N[C@@H](CC(C)C)C(=O)N[C@@H](CCCCN)C(=O)N[C@H](C(=O)O)C(C)C)CCOCCOCCC(=O)N[C@@H](Cc1c[nH]cn1)C(=O)N[C@@H](Cc1c[nH]c2ccccc12)C(=O)N[C@@H](CC(C)C)C(=O)N[C@@H](CCCCN)C(=O)N[C@H](C(=O)O)C(C)C [PNT-P4-(C5)2],ipsilateral paw mechanical threshold compared to before drug administration,SNI mice [1]; any time-point,did not show significant increase
same,ipsilateral paw mechanical threshold compared to vehicle,SNI mice [1]; any time-point,no significant increase
same,in-solution oligomeric behavior from elution volume,[2],smaller oligomers than P4-(C5)2 or direct interaction with the column material
CC(C)C[C@H](NC(=O)[C@H](C)NC(=O)[C@H](CCCCN)NC(=O)[C@H](CC(C)C)NC(=O)[C@H](C)NC(=O)[C@H](CC(C)C)NC(=O)[C@H](CCCCN)NC(=O)[C@H](CC(C)C)NC(=O)[C@H](C)NC(=O)[C@H](CC(C)C)NC(=O)[C@@H](N)CCCCN)C(=O)N[C@@H](CCCCN)C(=O)N[C@@H](C)C(=O)N[C@@H](C)C(=O)N[C@@H](CC(C)C)C(=O)N[C@@H](CCCCN)C(=O)N[C@@H](CC(C)C)C(=O)N[C@@H](C)C(=O)N(CCOCCOCCC(=O)N[C@@H](Cc1c[nH]cn1)C(=O)N[C@@H](Cc1c[nH]c2ccccc12)C(=O)N[C@@H](CC(C)C)C(=O)N[C@@H](CCCCN)C(=O)N[C@H](C(=O)O)C(C)C)CCOCCOCCC(=O)N[C@@H](Cc1c[nH]cn1)C(=O)N[C@@H](Cc1c[nH]c2ccccc12)C(=O)N[C@@H](CC(C)C)C(=O)N[C@@H](CCCCN)C(=O)N[C@H](C(=O)O)C(C)C [MAP-P4-(C5)2],ipsilateral paw mechanical threshold compared to before drug administration,SNI mice [1]; 1 h,significant increase
same,ipsilateral paw mechanical threshold compared to before drug administration,SNI mice [1]; 2 h,significant increase
same,ipsilateral paw mechanical threshold compared to vehicle,SNI mice [1]; 2 h,significant increase
same,in-solution oligomeric behavior from elution volume,[2],forms higher oligomeric structures than P4-(C5)2
same,Ki,PICK1,5.1 nM
same,Fold affinity change,PICK1,0.8 fold
CCOC(=O)NC(=O)/C(C#N)=C/c1ccc(Cl)c(Cl)c1 [FSC231],"mechanical hypersensitivity / withdrawal threshold, acute phase","SNI mice [3]; intrathecal, two days after operation",did not affect withdrawal threshold
NCC1(CC(=O)O)CCCCC1 [gabapentin],"mechanical hypersensitivity, chronic phase","SNI mice [3]; 30 mg/kg i.p., day 14 after surgery, at 2 hours",full recovery from mechanical hypersensitivity
"CC(C)C[C@H](NC(=O)[C@H](Cc1c[nH]c2ccccc12)NC(=O)[C@H](Cc1c[nH]cn1)NC(=O)CCOCCOCCOCCOCCOCCC(=O)N[C@@H](Cc1c[nH]cn1)C(=O)N[C@@H](Cc1c[nH]c2ccccc12)C(=O)N[C@@H](CC(C)C)C(=O)N[C@@H](CCCCN)C(=O)N[C@H](C(=O)O)C(C)C)C(=O)N[C@@H](CCCCN)C(=O)N[C@H](C(=O)O)C(C)C [P4-(C5)2, PEG4-(HWLKV)2]",fold increase in affinity compared to monomeric C5,PICK1 PDZ domain,15 fold
